Laboratory results: PubChem BioAssay AID192 (DTP/NCI, 2004)
Where “and” joins values, the source holds several entries; their conditions need not be identical. Equal values may be shown once. Inconclusive results and toxic doses are left out.

System: BDF1 mice, B16 melanoma ip, median survival T/C
Experiment: NCI In Vivo Anticancer Drug Screen. Data for tumor model B16 Melanoma (intraperitoneal) in B6D2F1 (BDF1) mice
Details: endpoint: median survival time, higher = longer survival
In short: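 Mice with transplantable tumors; drug vs vehicle groups; endpoint survival or tumor size; value = T/C.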

[1] = dose: 1.56 mg/kg/injection, schedule: Q01DX009 (ip), vehicle: saline with Tween-80
[2] = dose: 6.25 mg/kg/injection, schedule: Q01DX009 (ip), vehicle: saline with Tween-80
[3] = dose: 100.0 mg/kg/injection, schedule: Q04DX003 (ip), vehicle: Klucel (hydroxypropylcellulose) (HPC)
[4] = dose: 400.0 mg/kg/injection, schedule: Q04DX003 (ip), vehicle: Klucel (hydroxypropylcellulose) (HPC)
[5] = dose: 12.5 mg/kg/injection, schedule: Q01DX009 (ip), vehicle: saline
[6] = dose: 25.0 mg/kg/injection, schedule: Q01DX009 (ip), vehicle: saline
[7] = dose: 50.0 mg/kg/injection, schedule: Q01DX009 (ip), vehicle: saline
[8] = dose: 100.0 mg/kg/injection, schedule: Q01DX009 (ip), vehicle: saline
[9] = dose: 6.25 mg/kg/injection, schedule: Q01DX009 (ip), vehicle: saline
[10] = dose: 12.5 mg/kg/injection, schedule: Q01DX009 (ip), vehicle: saline with Tween-80
[11] = dose: 25.0 mg/kg/injection, schedule: Q01DX009 (ip), vehicle: saline with Tween-80
[12] = dose: 50.0 mg/kg/injection, schedule: Q01DX009 (ip), vehicle: saline with Tween-80
[13] = dose: 100.0 mg/kg/injection, schedule: Q01DX009 (ip), vehicle: Klucel (hydroxypropylcellulose) (HPC)
[14] = dose: 200.0 mg/kg/injection, schedule: Q01DX009 (ip), vehicle: Klucel (hydroxypropylcellulose) (HPC)
[15] = dose: 100.0 mg/kg/injection, schedule: Q01DX009 (ip), vehicle: saline with Tween-80
[16] = dose: 200.0 mg/kg/injection, schedule: Q01DX009 (ip), vehicle: saline with Tween-80
[17] = dose: 400.0 mg/kg/injection, schedule: Q01DX009 (ip), vehicle: saline with Tween-80
[18] = dose: 25.0 mg/kg/injection, schedule: Q01DX009 (ip), vehicle: Klucel (hydroxypropylcellulose) (HPC)

For `CCCCCCC(=O)CCCCCCCCCCCCC(=O)OC`, the T/C [1] was 98 % of control, the T/C (dose: 3.13 mg/kg/injection, schedule: Q01DX009 (ip), vehicle: saline with Tween-80) was 105 % of control and the T/C [2] was 97 % of control.

For `CCOC(=O)NC(C)(C)CN(CCO)C(=O)OCC`, the T/C [3] was 102 % of control and the T/C [4] was 100 % of control.

In the case of `CC(=N\O)/C(C)=N/O.CC(=N\O)/C(C)=N/O.CCCC1CC[N-]CC1.CCCC1CC[N-]CC1.CCCC1CC[N-]CC1.CCCC1CC[N-]CC1.[Cl-].[Cl-].[Cl][Rh][Cl].[Rh+3]`, the T/C (dose: 0.19 mg/kg/injection, schedule: Q01DX009 (ip), vehicle: saline) is reported as 104 % of control, the T/C (dose: 0.38 mg/kg/injection, schedule: Q01DX009 (ip), vehicle: saline) is reported as 107 % of control and the T/C (dose: 0.75 mg/kg/injection, schedule: Q01DX009 (ip), vehicle: saline) is reported as 104 % of control. For the same compound, the T/C (dose: 1.5 mg/kg/injection, schedule: Q01DX009 (ip), vehicle: saline) was 103 % of control and the T/C (dose: 3.0 mg/kg/injection, schedule: Q01DX009 (ip), vehicle: saline) was 105 % of control.

With `CCCCCCCCCCN1CCC(N2CCCCC2)CC1` the T/C [5] was 91 % of control, the T/C [6] was 93 % of control and the T/C [7] was 98 % of control. The T/C [8] was 87 % of control.

In the case of `NC(=O)Oc1cccc(OC(N)=O)c1`, the T/C (dose: 12.5 mg/kg/injection, schedule: Q01DX009 (ip), vehicle: water) is reported as 89 % of control, the T/C (dose: 25.0 mg/kg/injection, schedule: Q01DX009 (ip), vehicle: water) is reported as 94 % of control and the T/C (dose: 50.0 mg/kg/injection, schedule: Q01DX009 (ip), vehicle: water) is reported as 93 % of control. For the same compound, the T/C (dose: 100.0 mg/kg/injection, schedule: Q01DX009 (ip), vehicle: water) was 105 % of control, the T/C (dose: 200.0 mg/kg/injection, schedule: Q01DX009 (ip), vehicle: water) was 93 % of control and the T/C (dose: 400.0 mg/kg/injection, schedule: Q01DX009 (ip), vehicle: water) was 107 % of control.

With `NC(=S)N/N=C\c1nccc2c(N)cccc12` the T/C [2] was 115 % of control and 120 % of control, the T/C [9] was 160 % of control and the T/C [10] was 119 % of control. For the same compound, the T/C [5] was 172 % of control, the T/C (dose: 18.8 mg/kg/injection, schedule: Q04DX003 (ip), vehicle: saline) was 155 % of control and the T/C [11] was 156 % of control. For the same compound, the T/C [6] was 179 % of control, the T/C (dose: 37.5 mg/kg/injection, schedule: Q04DX003 (ip), vehicle: saline) was 168 % of control and the T/C [12] was 164 % of control and 175 % of control. The T/C [7] was 197 % of control, the T/C (dose: 75.0 mg/kg/injection, schedule: Q01DX009 (ip), vehicle: saline with Tween-80) was 150 % of control and 153 % of control and 165 % of control and the T/C (dose: 75.0 mg/kg/injection, schedule: Q04DX003 (ip), vehicle: saline) was 168 % of control. For the same compound, the T/C (dose: 150.0 mg/kg/injection, schedule: Q04DX003 (ip), vehicle: saline) was 179 % of control.

`Cc1ccc(CNc2cccc([N+](=O)[O-])c2)cc1` was tested, and the T/C [13] was 100 % of control and the T/C [14] was 97 % of control.

`Cc1ccc(C)c(NC(=O)Nc2ccccc2Cl)c1` was tested, and the T/C (dose: 25.0 mg/kg/injection, schedule: Q01DX009 (ip), vehicle: gum acacia) was 86 % of control, the T/C (dose: 50.0 mg/kg/injection, schedule: Q01DX009 (ip), vehicle: gum acacia) was 90 % of control and the T/C (dose: 100.0 mg/kg/injection, schedule: Q01DX009 (ip), vehicle: gum acacia) was 88 % of control. For the same compound, the T/C (dose: 100.0 mg/kg/injection, schedule: Q04DX003 (ip), vehicle: gum acacia) was 90 % of control.

In the case of `CCC(C)C(NC(=O)OC(C)(C)c1ccc(-c2ccccc2)cc1)C(=O)O` (stereo unspecified), the T/C [12] is reported as 94 % of control, the T/C [15] is reported as 94 % of control and the T/C [16] is reported as 91 % of control.

For `CC(=O)Nc1ccc(OC(=O)Nc2cccc3ccccc23)cc1`, the T/C (dose: 50.0 mg/kg/injection, schedule: Q04DX003 (ip), vehicle: Klucel (hydroxypropylcellulose) (HPC)) was 96 % of control, the T/C [3] was 106 % of control and the T/C (dose: 200.0 mg/kg/injection, schedule: Q04DX003 (ip), vehicle: Klucel (hydroxypropylcellulose) (HPC)) was 93 % of control.

`CCCCCCOCCN1CCN(CCCN2c3ccccc3Sc3ccc(C(F)(F)F)cc32)CC1` was tested, and the T/C (dose: 0.5 mg/kg/injection, schedule: Q01DX009 (ip), vehicle: saline with Tween-80) was 112 % of control, the T/C (dose: 1.0 mg/kg/injection, schedule: Q01DX009 (ip), vehicle: saline with Tween-80) was 109 % of control and the T/C (dose: 2.0 mg/kg/injection, schedule: Q01DX009 (ip), vehicle: saline with Tween-80) was 109 % of control.

In the case of `Cn1ccccc1=O`, the T/C [7] is reported as 124 % of control, the T/C [8] is reported as 120 % of control and the T/C (dose: 200.0 mg/kg/injection, schedule: Q01DX009 (ip), vehicle: saline) is reported as 117 % of control.

In the case of `O=Cc1cc2c(cc1Cl)OCO2`, the T/C [15] is reported as 107 % of control, the T/C [16] is reported as 101 % of control and the T/C [17] is reported as 99 % of control.

With `CN(C)CC(CN1c2ccccc2Sc2ccccc21)N(C)C` (stereo unspecified) the T/C (dose: 3.12 mg/kg/injection, schedule: Q01DX009 (ip), vehicle: saline) was 102 % of control, the T/C [9] was 107 % of control and the T/C [5] was 107 % of control. For the same compound, the T/C [6] was 120 % of control and the T/C [7] was 105 % of control.

With `Cc1noc(/N=C/c2cccc(Cl)c2)c1C` the T/C (dose: 175.0 mg/kg/injection, schedule: Q04DX003 (ip), vehicle: Klucel (hydroxypropylcellulose) (HPC)) was 107 % of control, the T/C (dose: 265.0 mg/kg/injection, schedule: Q04DX003 (ip), vehicle: Klucel (hydroxypropylcellulose) (HPC)) was 116 % of control and the T/C [4] was 109 % of control. For the same compound, the T/C (dose: 600.0 mg/kg/injection, schedule: Q04DX003 (ip), vehicle: Klucel (hydroxypropylcellulose) (HPC)) was 107 % of control.

With `CC[n+]1c(C)ccc2ccccc21` the T/C (dose: 25.0 mg/kg/injection, schedule: Q01DX009 (ip), vehicle: carboxymethylcellulose (CMC)) was 112 % of control and the T/C (dose: 50.0 mg/kg/injection, schedule: Q01DX009 (ip), vehicle: carboxymethylcellulose (CMC)) was 96 % of control.

`CN(C)c1ccc2c(SCC(=O)OCC(=O)[C@@]3(O)CC[C@H]4[C@@H]5CCC6=CC(=O)C=C[C@]6(C)[C@H]5C(=O)C[C@@]43C)c3ccc(N(C)C)cc3nc2c1` was tested, and the T/C [18] was 101 % of control, the T/C (dose: 50.0 mg/kg/injection, schedule: Q01DX009 (ip), vehicle: Klucel (hydroxypropylcellulose) (HPC)) was 96 % of control and the T/C [13] was 101 % of control. The T/C [14] was 113 % of control and the T/C (dose: 400.0 mg/kg/injection, schedule: Q01DX009 (ip), vehicle: Klucel (hydroxypropylcellulose) (HPC)) was 98 % of control.

In the case of `CC(=O)OC1CCC(C(C)(C)C)CC1` (stereo unspecified), the T/C [12] is reported as 113 % of control and the T/C [15] is reported as 91 % of control.

`CCc1ccc2c(c1)N(CCCN(CCCl)CCCl)c1ccccc1S2` was tested, and the T/C [1] was 114 % of control, the T/C (dose: 1.56 mg/kg/injection, schedule: Q04DX003 (ip), vehicle: saline with Tween-80) was 87 % of control and the T/C (dose: 3.12 mg/kg/injection, schedule: Q01DX009 (ip), vehicle: saline with Tween-80) was 92 % of control and 123 % of control. The T/C (dose: 3.12 mg/kg/injection, schedule: Q04DX003 (ip), vehicle: saline with Tween-80) was 110 % of control, the T/C [2] was 111 % of control and 117 % of control and the T/C (dose: 6.25 mg/kg/injection, schedule: Q04DX003 (ip), vehicle: saline with Tween-80) was 105 % of control. The T/C (dose: 12.5 mg/kg/injection, schedule: Q04DX003 (ip), vehicle: saline with Tween-80) was 112 % of control and the T/C (dose: 25.0 mg/kg/injection, schedule: Q04DX003 (ip), vehicle: saline with Tween-80) was 115 % of control.

In the case of `COc1cccc2c1C(=O)c1c(O)c3c(c(O)c1C2=O)C[C@@](O)(C(C)=O)C[C@@H]3OC1CC(N2CCC(OC)CC2)C(O)C(C)O1` (stereo partly specified), the T/C (dose: 1.56 mg/kg/injection, schedule: Q01DX001 (ip), vehicle: water) is reported as 123 % of control and the T/C (dose: 6.25 mg/kg/injection, schedule: Q01DX001 (ip), vehicle: water) is reported as 162 % of control.

With `CC(C)(C)CC(C)(C)c1ccc(O)c(O)c1` the T/C [2] was 98 % of control, the T/C [10] was 90 % of control and the T/C [11] was 88 % of control and 93 % of control.

In the case of `CC12CCC(C1)C(C)(C)C2NCCCN1C(=O)c2ccc3c4c(ccc(c24)C1=O)C(=O)N(CCCNC1C2(C)CCC(C2)C1(C)C)C3=O` (stereo unspecified), the T/C (dose: 6.25 mg/kg/injection, schedule: Q01DX009 (ip), vehicle: Klucel (hydroxypropylcellulose) (HPC)) is reported as 100 % of control, the T/C (dose: 12.5 mg/kg/injection, schedule: Q01DX009 (ip), vehicle: Klucel (hydroxypropylcellulose) (HPC)) is reported as 96 % of control and the T/C [18] is reported as 106 % of control and 109 % of control.

With `NC(Cc1ccc(O)cc1)C(=O)OCc1ccccc1` (stereo unspecified) the T/C [15] was 102 % of control, the T/C [16] was 114 % of control and the T/C [17] was 98 % of control.
